Assay: Solubility in water
Assay type: physicochemical

CC1=C(/C=C/C(C)=C/C=C/C(C)=C\C(=O)O)C(C)(C)CCC1 [cis-retinoic acid]
water solubility: extremely water insoluble
